Results: patent US20250009819A1, “NOVEL PROBIOTICS AND USE THEREOF” (PBLBIOLAB CO., LTD., priority 2021, published 2025)

Experiments:
Type in all cases: in vivo, C57BL/6 male mice
[1] = tested on: immunosuppressed animals induced by anticancer drug (cyclophosphamide); test: Immunosuppressed animals induced by cyclophosphamide: colitis improvement (colon); conditions: cyclophosphamide (CP)-treated mice, 1×10^9 CFU/mouse orally once a day for 5 days
Experimental: To 100 mg of colon tissue, 200 μl of 10 mM potassium phosphate buffer (pH 7.0) containing 0.5% hexadecyl trimethyl ammonium bromide was added and homogenized. Then, the supernatant was obtained by centrifugation for 10 minutes at 4° C. and 10,000 g. A volume of 50 μl of the supernatant was added to 0.95 mk of reaction solution (containing 1.6 mM tetramethyl benzidine and 0.1 mM H2O2), reacted at 37° C., and absorbance was monitored over time at 650 nm.
(§1) Hippocampus, colon, and spleen tissues were homogenized by adding 1 ml of RIPA buffer (Gibco) containing protease inhibitor cocktail and centrifuged at 4° C., 13000 rpm for 15 min to obtain supernatant. Indicators of this supernatant were measured using an ELISA kit (Ebioscience).
(§2) C57BL/6 male mice (5 weeks old, 19-21 g) were divided (6 mice in each group) and acclimatized to the laboratory for 1 week. To induce intestinal and brain diseases, the mice were administered with cyclophosphamide (CP, 150 mg/kg, dissolved in physiological saline) for 1 day, rested for 1 day, and then administered intraperitoneally the next day. Meanwhile, the normal group was administered intraperitoneally with 0.1 ml of physiological saline. […] The day following the conclusion of sample administration, the experimental animals were sacrificed, and samples from the brain hippocampus, colon, and spleen were collected. In the Hippocampus, inflammatory indicators, such as IFN-γ, TNF-α, and IL-10, were measured using ELISA. In the colon, intestinal length and inflammatory indicators, such as IFN-γ, TNF-α, and IL-10, were measured. In the spleen, Th1 cells and Treg cells were measured by FACS (Fluorescence-Activated Cell Sorting).

[2] = tested on: immunosuppressed animals induced by anticancer drug (cyclophosphamide); test: Immunosuppressed animals induced by cyclophosphamide: cognitive improvement, hippocampus indicators; conditions: cyclophosphamide (CP)-treated mice, 1×10^9 CFU/mouse orally once a day for 5 days; for IFN-γ/IL-10 / IL-10 / Interferon (IFN)-γ / TNF-a/IL-10 / TNF-α: hippocampus
Experimental: as §1
(§3) The Y-shaped maze measurement device is shaped like an alphabetical Y with three arms extending from it, each arm being 25 cm long, 14 cm high, 5 cm wide, and positioned at the same angle. At the end of one arm of the Y-shaped maze, the animal was placed with its head facing out and allowed to freely navigate the arm for 8 minutes. The animal's movements were recorded, and reported as arm entries when the animal entered the arm with its hind paw, and the animal's movement was represented by an alternation, which was defined as one alternation when the animal passed through the three arms in succession. The amount of spontaneous alternation behavior was expressed as a percentage between the actual number of alternations and the maximum possible number of alternations (i.e., the total number of […] minus 2).
(§4) The experiment was conducted in a box (40×40×40 cm) made so that the outside could not be seen from the inside. Two objects (A, A′) of the same shape and size were fixedly disposed in a box and the mouse was relocated to start from the center of the box. Then, the number of times the mouse made contact with the two objects was recorded for 10 minutes. After 24 hours, one of the two objects was replaced with a new object (A, B). Then, one original object and one new object were prepared, and the animal's exploration time was measured.
as §2

[3] = tested on: animals with antibiotic-induced gut microbiota imbalance; test: Animals with antibiotic (ampicillin)-induced gut microbiota imbalance: improvement effect in spleen; conditions: ampicillin (AP)-treated mice, 1×10^9 CFU/mouse orally once a day for 5 days; for Foxp3 (fold change) / Tbet (fold change) / Tbet/Foxp3: spleen qPCR; for IFN-γ/IL-10 / IL-10 / Interferon (IFN)-γ / NK cell cytoxicity (%) / Phagocytosis (%) / TNF-a/IL-10 / TNF-α: spleen
Experimental: as §1
mRNA was isolated from spleen tissue using the RNA Isolation Kit: RNeasy Mini Kit (QIAGEN), converted to cDNA, and qPCR was performed to measure the expression rates of Tbet, Foxp3, and glyceraldehyde 3-phosphate dehydrogenase (GAPDH). The reaction product was first treated at 95° C. for 30 seconds, followed by 38 cycles of 5 seconds at 95° C. and 30 seconds at 72° C. for analysis.
(§5) C57BL/6 male mice (5 weeks old, 19-21 g) were divided (6 mice in each group) and acclimatized to the laboratory for 1 week. To induce intestinal and brain diseases, the mice were orally administered with ampicillin (AP, 100 mg/kg, dissolved in physiological saline) for 3 days. Meanwhile, the normal group was orally administered with 0.1 ml of physiological saline. […] The day following the conclusion of sample administration, the experimental animals were sacrificed, and samples from the brain hippocampus, colon, and spleen were collected. In the Hippocampus, inflammatory indicators, such as IFN-γ, TNF-α, and IL-10, were measured using ELISA. In the colon, intestinal length and inflammatory indicators, such as IFN-γ, TNF-α, and IL-10, were measured. In the spleen, Th1 cells and Treg cells were measured by FACS (Fluorescence-Activated Cell Sorting), and in feces, endotoxin (LPS) and gut microbial communities were measured.

[4] = tested on: animals with antibiotic-induced gut microbiota imbalance; test: Animals with antibiotic (ampicillin)-induced gut microbiota imbalance: cognitive improvement, hippocampus indicators; conditions: ampicillin (AP)-treated mice, 1×10^9 CFU/mouse orally once a day for 5 days; for IFN-γ/IL-10 / IL-10 / Interferon (IFN)-γ / TNF-a/IL-10 / TNF-α: hippocampus
Experimental: as §1, §3, §4, §5

| Substance | Colon (cm) [1] [cm] | IFN-γ/IL-10 [1] | IL-10 [1] [pg/mg] | Interferon (IFN)-γ [1] [pg/mg] | MPO activity [1] [μUnit/mg] | TNF-a/IL-10 [1] | TNF-α [1] [pg/mg] | Exoporation (%) (in NOR task) [2] | Spontaneous alteration (%) (in Y-maze task) [2] | IFN-γ/IL-10 [2] | IL-10 [2] [pg/mg] | Interferon (IFN)-γ [2] [pg/mg] | TNF-a/IL-10 [2] | TNF-α [2] [pg/mg] | Foxp3 (fold change) [3] [fold change] | Tbet (fold change) [3] [fold change] | Tbet/Foxp3 [3] | IFN-γ/IL-10 [3] | IL-10 [3] [pg/mg] | Interferon (IFN)-γ [3] [pg/mg] | other results |
| --- | --- | --- | --- | --- | --- | --- | --- | --- | --- | --- | --- | --- | --- | --- | --- | --- | --- | --- | --- | --- | --- |
| Bifidobacterium longum NK219 | 4.95 | 3.32 | 13.00 | 38.64 | 4.62 | 2.12 | 26.73 | 78.34 | 71.26 | 0.44 | 53.74 | 23.48 | 0.20 | 10.91 | 1.66 | 1.03 | 0.74 | 0.81 | 11.35 | 9.12 | NK cell cytoxicity (%) [3]: 6.47%; Phagocytosis (%) [3]: 69.91%; TNF-a/IL-10 [3]: 0.40; TNF-α [3]: 4.32 pg/mg; Exoporation (%) (in NOR task) [4]: 83.21%; Spontaneous alteration (%) (in Y-maze task) [4]: 70.54%; IFN-γ/IL-10 [4]: 0.48; IL-10 [4]: 50.29 pg/mg; Interferon (IFN)-γ [4]: 24.33 pg/mg; TNF-a/IL-10 [4]: 0.28; TNF-α [4]: 12.43 pg/mg |
| Lactobacillus rhamnosus NK210 | 4.98 | 3.05 | 9.65 | 28.79 | 4.79 | 2.19 | 20.60 | 78.71 | 70.94 | 0.59 | 43.29 | 25.30 | 0.24 | 10.44 | 0.69 | 1.07 | 1.66 | 0.87 | 8.25 | 7.03 | NK cell cytoxicity (%) [3]: 7.34%; Phagocytosis (%) [3]: 74.02%; TNF-a/IL-10 [3]: 0.45; TNF-α [3]: 3.57 pg/mg; Exoporation (%) (in NOR task) [4]: 76.25%; Spontaneous alteration (%) (in Y-maze task) [4]: 73.01%; IFN-γ/IL-10 [4]: 0.47; IL-10 [4]: 48.89 pg/mg; Interferon (IFN)-γ [4]: 23.18 pg/mg; TNF-a/IL-10 [4]: 0.26; TNF-α [4]: 13.37 pg/mg |
